PubChem BioAssay AID256 (DTP/NCI, 2004)
Several values for one entry are separate records, joined by “and”; a condition that tells them apart may be missing. Equal values may be shown once. Inconclusive results and toxic doses are left out. Rule for the calls: active = survival T/C of 150% or more; inactive = T/C below 125% in these data.

Tested on: CD2F1 mice, L1210 leukemia ip, survival T/C
Test: NCI In Vivo Anticancer Drug Screen. Data for tumor model L1210 Leukemia (intraperitoneal) in CD2F1 (CDF1) mice
Settings: higher = longer survival
Summary of the method: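 Transplantable tumor in mice; compound-treated vs vehicle-treated groups. Read-out = treated/control ratio of the measured endpoint.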

[1] = endpoint: mean survival time, dose: 100.0 mg/kg/injection, schedule: Q01DX001 (ip), vehicle: saline with Tween-80
[2] = endpoint: mean survival time, dose: 200.0 mg/kg/injection, schedule: Q01DX001 (ip), vehicle: saline with Tween-80
[3] = endpoint: mean survival time, dose: 100.0 mg/kg/injection, schedule: Q04DX002 (ip), vehicle: saline
[4] = endpoint: mean survival time, dose: 100.0 mg/kg/injection, schedule: Q01DX009 (ip), vehicle: saline with Tween-80
[5] = endpoint: mean survival time, dose: 100.0 mg/kg/injection, schedule: Q04DX003 (ip), vehicle: saline with Tween-80
[6] = endpoint: mean survival time, dose: 200.0 mg/kg/injection, schedule: Q04DX003 (ip), vehicle: saline with Tween-80
[7] = endpoint: mean survival time, dose: 400.0 mg/kg/injection, schedule: Q04DX003 (ip), vehicle: saline with Tween-80

Measured: T/C

Nc1ccn(C2OC(CO)C3[O][Sn]([c]4ccccc4)([c]4ccccc4)[O]C32)c(=O)n1 (stereo not given)
inactive: endpoint: mean survival time, dose: 1.56 mg/kg/injection, schedule: Q01DX005 (ip), vehicle: other 100 % of control | endpoint: mean survival time, dose: 3.13 mg/kg/injection, schedule: Q01DX005 (ip), vehicle: other 94 % of control | endpoint: mean survival time, dose: 6.25 mg/kg/injection, schedule: Q01DX005 (ip), vehicle: other 100 % of control | endpoint: mean survival time, dose: 12.5 mg/kg/injection, schedule: Q01DX005 (ip), vehicle: other 94 % of control and 104 % of control

CC(CNC(=O)C12CC3CC(CC(C3)C1)C2)NC(=O)C12CC3CC(CC(C3)C1)C2 (stereo not given)
inactive: endpoint: median survival time, dose: 12.5 mg/kg/injection, schedule: Q01DX005 (ip), vehicle: DMSO 101 % of control | endpoint: median survival time, dose: 25.0 mg/kg/injection, schedule: Q01DX005 (ip), vehicle: DMSO 104 % of control | endpoint: median survival time, dose: 50.0 mg/kg/injection, schedule: Q01DX005 (ip), vehicle: DMSO 101 % of control | endpoint: median survival time, dose: 100.0 mg/kg/injection, schedule: Q01DX005 (ip), vehicle: DMSO 98 % of control | endpoint: median survival time, dose: 200.0 mg/kg/injection, schedule: Q01DX005 (ip), vehicle: DMSO 101 % of control

O=C(/C=C(/Nc1ccccc1)c1ccccc1)c1ccccc1
inactive: [1] 90 % of control | [2] 92 % of control | endpoint: mean survival time, dose: 400.0 mg/kg/injection, schedule: Q01DX001 (ip), vehicle: saline with Tween-80 86 % of control

COC(=O)CCc1nc2ccccc2c(=O)[nH]1
inactive: endpoint: mean survival time, dose: 100.0 mg/kg/injection, schedule: Q04DX003 (ip), vehicle: Klucel (hydroxypropylcellulose) (HPC) 102 % of control | endpoint: mean survival time, dose: 200.0 mg/kg/injection, schedule: Q04DX003 (ip), vehicle: Klucel (hydroxypropylcellulose) (HPC) 109 % of control | endpoint: mean survival time, dose: 400.0 mg/kg/injection, schedule: Q04DX003 (ip), vehicle: Klucel (hydroxypropylcellulose) (HPC) 102 % of control

COc1ccc2c(c1[N+](=O)[O-])CCCCC2=O
inactive: endpoint: mean survival time, dose: 50.0 mg/kg/injection, schedule: Q01DX009 (ip), vehicle: other 100 % of control | endpoint: mean survival time, dose: 100.0 mg/kg/injection, schedule: Q01DX009 (ip), vehicle: other 92 % of control | endpoint: mean survival time, dose: 200.0 mg/kg/injection, schedule: Q01DX009 (ip), vehicle: other 100 % of control

[Co].[N-]=C=S.[N-]=C=S.[N-]=C=S.[N-]=C=S
inactive: endpoint: mean survival time, dose: 25.0 mg/kg/injection, schedule: Q04DX002 (ip), vehicle: saline 104 % of control | endpoint: mean survival time, dose: 50.0 mg/kg/injection, schedule: Q04DX002 (ip), vehicle: saline 104 % of control | [3] 117 % of control and 112 % of control

CCOC(=O)Cc1cnc(SC)nc1Nc1ccc(F)cc1
inactive: [1] 90 % of control | [2] 95 % of control

NCCCN1CCCCC1
inactive: [3] 102 % of control | endpoint: mean survival time, dose: 200.0 mg/kg/injection, schedule: Q04DX002 (ip), vehicle: saline 95 % of control | endpoint: mean survival time, dose: 400.0 mg/kg/injection, schedule: Q04DX002 (ip), vehicle: saline 102 % of control

O=C1N(c2ccccc2)SN2C3C=CC(C4CC43)N12 (stereo not given)
inactive: endpoint: mean survival time, dose: 12.5 mg/kg/injection, schedule: Q04DX002 (ip), vehicle: saline with Tween-80 114 % of control | endpoint: mean survival time, dose: 25.0 mg/kg/injection, schedule: Q04DX002 (ip), vehicle: saline with Tween-80 105 % of control

Nc1nc2c(ncn2-c2ccc(OCCNC(=O)Nc3cccc(S(=O)(=O)F)c3)cc2)c(=O)[nH]1
inactive: endpoint: mean survival time, dose: 100.0 mg/kg/injection, schedule: Q04DX002 (ip), vehicle: saline with Tween-80 104 % of control | endpoint: mean survival time, dose: 200.0 mg/kg/injection, schedule: Q04DX002 (ip), vehicle: saline with Tween-80 96 % of control | endpoint: mean survival time, dose: 400.0 mg/kg/injection, schedule: Q04DX002 (ip), vehicle: saline with Tween-80 90 % of control

N#CC(OC(=O)c1ccccc1)c1cccc([N+](=O)[O-])c1 (stereo not given)
inactive: [4] 98 % of control | [5] 101 % of control | endpoint: mean survival time, dose: 200.0 mg/kg/injection, schedule: Q01DX009 (ip), vehicle: saline with Tween-80 96 % of control | [6] 96 % of control | [7] 100 % of control

COC/C(=N/Nc1ccc([N+](=O)[O-])cc1[N+](=O)[O-])c1ccccc1
inactive: [5] 102 % of control | [6] 108 % of control | [7] 100 % of control

CCOC(=O)CCC1(CCC(=O)OCC)c2ccccc2-c2ccccc21
inactive: endpoint: mean survival time, dose: 100.0 mg/kg/injection, schedule: Q01DX001 (ip), vehicle: Klucel (hydroxypropylcellulose) (HPC) 96 % of control | endpoint: mean survival time, dose: 200.0 mg/kg/injection, schedule: Q01DX001 (ip), vehicle: Klucel (hydroxypropylcellulose) (HPC) 104 % of control | endpoint: mean survival time, dose: 400.0 mg/kg/injection, schedule: Q01DX001 (ip), vehicle: Klucel (hydroxypropylcellulose) (HPC) 104 % of control

O=c1nc(NCC23CC4CC(CC(C4)C2)C3)ccn1C1OC(CO)C(O)C1O (stereo not given)
inactive: endpoint: median survival time, dose: 12.5 mg/kg/injection, schedule: Q01DX005 (ip), vehicle: distilled water + Tween-80 100 % of control | endpoint: median survival time, dose: 25.0 mg/kg/injection, schedule: Q01DX005 (ip), vehicle: distilled water + Tween-80 101 % of control | endpoint: median survival time, dose: 50.0 mg/kg/injection, schedule: Q01DX005 (ip), vehicle: distilled water + Tween-80 101 % of control | endpoint: median survival time, dose: 100.0 mg/kg/injection, schedule: Q01DX005 (ip), vehicle: distilled water + Tween-80 94 % of control | endpoint: median survival time, dose: 200.0 mg/kg/injection, schedule: Q01DX005 (ip), vehicle: distilled water + Tween-80 91 % of control

N#CSCc1ccc(O)c(C(=O)O)c1
inactive: endpoint: mean survival time, dose: 10.0 mg/kg/injection, schedule: Q01DX009 (ip), vehicle: saline with Tween-80 94 % of control | endpoint: mean survival time, dose: 20.0 mg/kg/injection, schedule: Q01DX009 (ip), vehicle: saline with Tween-80 105 % of control | endpoint: mean survival time, dose: 40.0 mg/kg/injection, schedule: Q01DX009 (ip), vehicle: saline with Tween-80 106 % of control

CCOC(=O)c1cc2ccccc2oc1=O
inactive: endpoint: mean survival time, dose: 25.0 mg/kg/injection, schedule: Q01DX009 (ip), vehicle: saline with Tween-80 100 % of control | endpoint: mean survival time, dose: 50.0 mg/kg/injection, schedule: Q01DX009 (ip), vehicle: saline with Tween-80 97 % of control | [4] 109 % of control

CC12CCCCC1SC(F)(F)C2(F)F (stereo not given)
inactive: endpoint: mean survival time, dose: 12.5 mg/kg/injection, schedule: Q04DX003 (ip), vehicle: saline with Tween-80 111 % of control | endpoint: mean survival time, dose: 25.0 mg/kg/injection, schedule: Q04DX003 (ip), vehicle: saline with Tween-80 88 % of control | endpoint: mean survival time, dose: 50.0 mg/kg/injection, schedule: Q04DX003 (ip), vehicle: saline with Tween-80 103 % of control

O=C1c2ccccc2C(=O)N1CCO
inactive: [5] 106 % of control | [6] 108 % of control | [7] 110 % of control

COC(=O)c1ccccc1-c1ccccc1C(=O)O
inactive: endpoint: mean survival time, dose: 44.0 mg/kg/injection, schedule: Q01DX001 (ip), vehicle: other 97 % of control | endpoint: mean survival time, dose: 66.0 mg/kg/injection, schedule: Q01DX001 (ip), vehicle: other 97 % of control | endpoint: mean survival time, dose: 100.0 mg/kg/injection, schedule: Q01DX001 (ip), vehicle: other 103 % of control | endpoint: mean survival time, dose: 150.0 mg/kg/injection, schedule: Q01DX001 (ip), vehicle: other 100 % of control

N#C[S-].N#C[S-].[Au+3].[Au+3].[CH3-].[CH3-].[CH3-].[CH3-]
inactive: [5] 96 % of control | [6] 98 % of control

C[n+]1c(/C=C\C=C\N2CCCCC2)sc2ccccc21
inactive: endpoint: mean survival time, dose: 0.06 mg/kg/injection, schedule: Q01DX009 (ip), vehicle: Klucel (hydroxypropylcellulose) (HPC) 104 % of control | endpoint: mean survival time, dose: 0.12 mg/kg/injection, schedule: Q01DX009 (ip), vehicle: Klucel (hydroxypropylcellulose) (HPC) 104 % of control | endpoint: mean survival time, dose: 0.25 mg/kg/injection, schedule: Q01DX009 (ip), vehicle: Klucel (hydroxypropylcellulose) (HPC) 107 % of control | endpoint: mean survival time, dose: 0.31 mg/kg/injection, schedule: Q01DX009 (ip), vehicle: Klucel (hydroxypropylcellulose) (HPC) 113 % of control | endpoint: mean survival time, dose: 0.5 mg/kg/injection, schedule: Q01DX009 (ip), vehicle: Klucel (hydroxypropylcellulose) (HPC) 111 % of control | endpoint: mean survival time, dose: 0.63 mg/kg/injection, schedule: Q01DX009 (ip), vehicle: Klucel (hydroxypropylcellulose) (HPC) 97 % of control | endpoint: mean survival time, dose: 1.0 mg/kg/injection, schedule: Q01DX009 (ip), vehicle: Klucel (hydroxypropylcellulose) (HPC) 107 % of control | endpoint: mean survival time, dose: 1.25 mg/kg/injection, schedule: Q01DX009 (ip), vehicle: Klucel (hydroxypropylcellulose) (HPC) 100 % of control | endpoint: mean survival time, dose: 2.0 mg/kg/injection, schedule: Q01DX009 (ip), vehicle: Klucel (hydroxypropylcellulose) (HPC) 118 % of control | endpoint: mean survival time, dose: 62.0 micrograms/kg/injection, schedule: Q01DX009 (ip), vehicle: Klucel (hydroxypropylcellulose) (HPC) 104 % of control | endpoint: mean survival time, dose: 125.0 micrograms/kg/injection, schedule: Q01DX009 (ip), vehicle: Klucel (hydroxypropylcellulose) (HPC) 102 % of control | endpoint: mean survival time, dose: 250.0 micrograms/kg/injection, schedule: Q01DX009 (ip), vehicle: Klucel (hydroxypropylcellulose) (HPC) 101 % of control | endpoint: mean survival time, dose: 500.0 micrograms/kg/injection, schedule: Q01DX009 (ip), vehicle: Klucel (hydroxypropylcellulose) (HPC) 101 % of control | endpoint: mean survival time, dose: 1000.0 micrograms/kg/injection, schedule: Q01DX009 (ip), vehicle: Klucel (hydroxypropylcellulose) (HPC) 113 % of control | endpoint: mean survival time, dose: 2000.0 micrograms/kg/injection, schedule: Q01DX009 (ip), vehicle: Klucel (hydroxypropylcellulose) (HPC) 108 % of control
